Measured values published in ChEMBL document CHEMBL4828771, “Discovery and Development of a Potent, Selective, and Orally Bioavailable CHK1 Inhibitor Candidate: 5-((4-((3-Amino-3-methylbutyl)amino)-5-(trifluoromethyl)pyrimidin-2-yl)amino)picolinonitrile” (J Med Chem, 2021).
The source made the active and inactive calls. No cut-off for these calls is given here.

Experiments:
[1] = Half life in ICR mouse at 20 mg/kg, po measured after 0.083 to 48 hrs by LC-MS/MS analysis; assay type: ADME, organism-based; conditions: in vivo, time 0.083-48 hrs
[2] = test system: MV4-11; assay: Antiproliferation activity against human MV4-11 cells assessed as reduction in cell viability incubated for 72 hrs by MTS assay; assay type: functional, cell-based; conditions: MV4-11, 72 h
[3] = test system: MV4-11; assay: Antitumor activity against human MV4-11 cells xenografted in mouse assessed as inhibition of tumor growth by measuring T/C ratio at 30 mg/kg, po dosed 5 days/week for 3 weeks measured twice every week; assay type: functional
[4] = Cmax in ICR mouse at 20 mg/kg, po measured after 0.083 to 48 hrs by LC-MS/MS analysis; assay type: ADME, organism-based; design: route oral, time upper 48 hrs, time lower 0.083 hrs, dose 20 mg/kg; conditions: in vivo
[5] = AUCt in ICR mouse at 20 mg/kg, po measured after 0.083 to 48 hrs by LC-MS/MS analysis; assay type: ADME, organism-based; design: route oral, dose 20 mg/kg, time 0.083-48 hrs; conditions: in vivo
[6] = target: T1, Serine/threonine-protein kinase Chk1 (Homo sapiens, UniProt O14757); assay: Inhibition of CHK1 (unknown origin) incubated for 1 hr in presence of ATP by HTRF assay
T1 sequence (O14757 whole entry): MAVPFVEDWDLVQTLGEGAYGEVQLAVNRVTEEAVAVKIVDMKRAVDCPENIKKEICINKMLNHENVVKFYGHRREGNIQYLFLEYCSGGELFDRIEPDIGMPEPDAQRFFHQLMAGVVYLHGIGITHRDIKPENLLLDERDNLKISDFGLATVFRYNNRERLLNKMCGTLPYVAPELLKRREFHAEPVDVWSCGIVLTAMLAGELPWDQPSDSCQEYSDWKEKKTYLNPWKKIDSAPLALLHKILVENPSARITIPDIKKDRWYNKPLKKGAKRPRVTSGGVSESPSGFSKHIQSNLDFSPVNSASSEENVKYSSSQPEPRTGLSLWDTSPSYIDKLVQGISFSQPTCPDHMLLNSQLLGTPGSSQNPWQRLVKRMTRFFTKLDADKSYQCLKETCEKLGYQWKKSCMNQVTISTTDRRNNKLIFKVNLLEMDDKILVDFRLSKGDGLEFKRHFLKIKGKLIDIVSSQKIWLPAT

[7] = Tmax in ICR mouse at 20 mg/kg, po measured after 0.083 to 48 hrs by LC-MS/MS analysis; assay type: ADME, organism-based; conditions: in vivo, time 0.083-48 hrs
[8] = MRT (0 to infinity) in ICR mouse at 20 mg/kg, po measured after 0.083 to 48 hrs by LC-MS/MS analysis; assay type: ADME, organism-based; conditions: in vivo, time 0.083-48 hrs
[9] = AUC (0 to infinity) in ICR mouse at 20 mg/kg, po measured after 0.083 to 48 hrs by LC-MS/MS analysis; assay type: ADME, organism-based; design: route oral, time upper 48 hrs, time lower 0.083 hrs, dose 20 mg/kg; conditions: in vivo
[10] = target: hERG (KCNH2) (Homo sapiens, UniProt Q12809); assay: Inhibition of human ERG expressed in HEK293 cells at 10 uM by patch-clamp technique relative to control; assay type: cell-based; conditions: HEK293 cells that express hERG
hERG (KCNH2), sequence (Q12809 whole entry): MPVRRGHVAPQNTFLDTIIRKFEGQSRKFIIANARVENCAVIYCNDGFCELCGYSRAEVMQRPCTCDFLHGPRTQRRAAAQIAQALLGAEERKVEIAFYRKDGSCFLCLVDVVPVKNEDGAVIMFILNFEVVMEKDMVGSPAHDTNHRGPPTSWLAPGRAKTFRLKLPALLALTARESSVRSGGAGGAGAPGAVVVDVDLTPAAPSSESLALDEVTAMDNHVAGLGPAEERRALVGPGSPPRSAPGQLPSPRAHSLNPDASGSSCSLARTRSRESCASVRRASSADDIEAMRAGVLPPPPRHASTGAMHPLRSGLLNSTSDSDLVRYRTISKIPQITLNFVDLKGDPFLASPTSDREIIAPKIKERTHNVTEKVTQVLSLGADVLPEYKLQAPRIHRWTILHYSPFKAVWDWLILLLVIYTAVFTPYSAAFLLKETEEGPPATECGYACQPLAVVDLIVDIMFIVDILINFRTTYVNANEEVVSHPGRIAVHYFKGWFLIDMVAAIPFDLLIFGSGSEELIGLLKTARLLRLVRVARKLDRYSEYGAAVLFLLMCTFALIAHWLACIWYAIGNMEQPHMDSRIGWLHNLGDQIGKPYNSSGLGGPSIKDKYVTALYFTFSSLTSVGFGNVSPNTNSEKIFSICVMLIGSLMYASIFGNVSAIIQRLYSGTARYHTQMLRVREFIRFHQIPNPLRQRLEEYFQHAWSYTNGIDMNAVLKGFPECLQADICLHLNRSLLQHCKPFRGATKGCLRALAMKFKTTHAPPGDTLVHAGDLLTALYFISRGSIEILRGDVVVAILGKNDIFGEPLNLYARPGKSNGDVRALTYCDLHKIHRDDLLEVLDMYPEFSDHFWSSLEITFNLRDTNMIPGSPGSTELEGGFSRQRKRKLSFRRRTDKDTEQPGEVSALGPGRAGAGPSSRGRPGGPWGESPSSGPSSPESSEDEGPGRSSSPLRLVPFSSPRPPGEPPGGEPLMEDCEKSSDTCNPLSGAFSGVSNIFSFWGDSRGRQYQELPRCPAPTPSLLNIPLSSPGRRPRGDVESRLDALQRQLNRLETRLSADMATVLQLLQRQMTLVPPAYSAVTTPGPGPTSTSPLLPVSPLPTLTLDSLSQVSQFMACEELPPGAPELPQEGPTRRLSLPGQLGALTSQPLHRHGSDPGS

[11] = test system: Z-138; assay: Antiproliferation activity against human Z138 cells assessed as reduction in cell viability incubated for 72 hrs by MTS assay; assay type: functional, cell-based; conditions: Z-138, 72 h
[12] = Cmax in ICR mouse at 10 mg/kg, po measured after 0.083 to 48 hrs by LC-MS/MS analysis; assay type: ADME, organism-based; design: route oral, time upper 48 hrs, dose 10 mg/kg, time lower 0.083 hrs; conditions: in vivo
[13] = Tmax in ICR mouse at 10 mg/kg, po measured after 0.083 to 48 hrs by LC-MS/MS analysis; assay type: ADME, organism-based; conditions: in vivo, time 0.083-48 hrs
[14] = AUCt in ICR mouse at 10 mg/kg, po measured after 0.083 to 48 hrs by LC-MS/MS analysis; assay type: ADME, organism-based; design: route oral, dose 10 mg/kg, time 0.083-48 hrs; conditions: in vivo
[15] = Half life in ICR mouse at 10 mg/kg, po measured after 0.083 to 48 hrs by LC-MS/MS analysis; assay type: ADME, organism-based; conditions: in vivo, time 0.083-48 hrs
[16] = AUC(0 to infinity) in ICR mouse at 10 mg/kg, po measured after 0.083 to 48 hrs by LC-MS/MS analysis; assay type: ADME, organism-based; design: route oral, time lower 0.083 hrs, dose 10 mg/kg, time upper 48 hrs; conditions: in vivo
[17] = MRT(0 to infinity) in ICR mouse at 10 mg/kg, po measured after 0.083 to 48 hrs by LC-MS/MS analysis; assay type: ADME, organism-based; conditions: in vivo, time 0.083-48 hrs
[18] = test system: HT-29; assay: Induction of gamma-H2A.X in human HT-29 cells at 40 nM incubated for 24 hrs by Western blot analysis; assay type: functional, cell-based
[19] = target: T2, Serine/threonine-protein kinase Chk1 (Homo sapiens) (UniProt O14757); assay: Inhibition of CHK1 in human HT-29 cells assessed as […] residue at 40 nM incubated for 24 hrs by Western blot analysis; assay type: cell-based
T2 sequence (whole entry): T1 sequence (O14757 whole entry)

[20] = test system: Mus musculus; assay: Induction of S345 phosphorylation in tumor of mouse xenografted with human HT-29 cells at 100 mg/kg, iv dosed once a week for 22 days by Western blot analysis; assay type: functional, organism-based; conditions: time 22.0 day
[21] = target: T2, Serine/threonine-protein kinase Chk1 (Homo sapiens); assay: Inhibition of CHK1 in human HT-29 cells assessed as increase in phosphorylation at S345 residue at 40 nM incubated for 24 hrs by Western blot analysis; assay type: cell-based
[22] = test system: Mus musculus; assay: Induction of S296 phosphorylation in tumor of mouse xenografted with human HT-29 cells at 100 mg/kg, iv dosed once a week for 22 days by Western blot analysis; assay type: functional, organism-based; conditions: time 22.0 day
[23] = test system: HT-29; assay: Antitumor activity against human HT-29 cells xenografted in mouse assessed as reduction in tumor growth by measuring T/C ratio at 100 mg/kg, iv dosed once a week for 22 days measured twice every week; assay type: functional; conditions: time 22 day

| Compound | half-life [1] [h] | IC50 [2] [nM] | Cmax [4] [ng/mL] | AUC(0-t) [5] [ng·h/mL] | IC50 [6] [nM] | Tmax [7] [h] | MRT inf [8] [h] | AUC(0-inf) [9] [ng·h/mL] | T/C [3] [%] | inhibition at 10 µM [10] [%] | IC50 [11] [nM] | other results |
| --- | --- | --- | --- | --- | --- | --- | --- | --- | --- | --- | --- | --- |
| N#Cc1ccc(Nc2ncc(C(F)(F)F)c(NCCCN)n2)cn1 | 0.76 | 140 | 2860 | 3300 | 20.9 | 0.5 | 1.3 | 4100 | 29.94 | 43.4 | 460 |  |
| CNc1nc(Nc2cnc(C#N)c(O[C@@H]3CCCNC3)c2)ncc1-c1cnn(C(F)(F)F)c1 | 0.89 |  | 93 | 126 | 6.8 | 2 | 2.58 | 130 |  |  |  |  |
| Nc1ccn([C@@H]2O[C@H](CO)[C@@H](O)C2(F)F)c(=O)n1 [GEMCITABINE] |  |  |  |  |  |  |  |  |  |  |  | Activity [18]: Active; Activity [19]: Active; Activity [20]: Active; Activity [21]: Active; Activity [22]: Active; T/C [23]: 57.7% |
| CNCCCNc1nc(Nc2ccc(C#N)nc2)ncc1C(F)(F)F | 4.12 | 240 | 1530 | 6600 | 12.9 | 0.5 | 5.62 | 6700 | 35.36 | 73.3 | 300 |  |
| CNc1nc(Nc2cnc(C#N)c(N[C@@H]3CCNC3)c2)ncc1C(F)(F)F | 1.4 | 60 | 1330 | 1120 | 3.3 | 0.33 | 1.17 | 1150 | 65.78 | 17.9 | 170 |  |

Second part, led by results:

| half-life [1] [h] | IC50 [2] [nM] | Cmax [4] [ng/mL] | AUC(0-t) [5] [ng·h/mL] | IC50 [6] [nM] | Tmax [7] [h] | MRT inf [8] [h] | AUC(0-inf) [9] [ng·h/mL] | Compound | T/C [3] [%] | inhibition at 10 µM [10] [%] | IC50 [11] [nM] | other results |
| --- | --- | --- | --- | --- | --- | --- | --- | --- | --- | --- | --- | --- |
| 2.38 | 250 | 1690 | 2520 | 24.3 | 0.25 | 2.42 | 2710 | CS(=O)(=O)CCNCCCNc1nc(Nc2ccc(C#N)nc2)ncc1C(F)(F)F |  | 58.5 | 630 |  |
|  | 50 |  |  | 32.9 |  |  |  | N#Cc1ccc(Nc2ncc(C(F)(F)F)c(N[C@H]3CC[C@H](N)CC3)n2)cn1 |  | 47.9 | 680 | Cmax [12]: 371 ng/mL; Tmax [13]: 1.42 h; AUC(0-t) [14]: 1430 ng·h/mL; half-life [15]: 2.88 h; AUC(0-inf) [16]: 1440 ng·h/mL; MRT inf [17]: 3.37 h |
| 0.7 | 330 | 127 | 166 | 7.6 | 1.08 | 1.57 | 168 | CNc1nc(Nc2cnc(C#N)c(O[C@@H]3CCCNC3)c2)ncc1C(F)(F)F |  | 91.6 | 1390 |  |
